Reference: paper PMC4744035, “In Vivo, In Vitro, and In Silico Characterization of Peptoids as Antimicrobial Agents” (PLoS ONE, 2016)
≈ marks a conversion by molar mass, not a printed value. Read-outs that look alike come from different tables or passages of the source. Square brackets hold non-standard residues; d marks the D form. Ends that are not written are not given here. Peptide text beside a SMILES is read from it. Nspe = C[C@H](NCC(=O)O)c1ccccc1; Nphe = O=C(O)CNCc1ccccc1; Nlys = NCCCCNCC(=O)O

Experiments:
LPS (P. aeruginosa) [1] = test system: LPS (P. aeruginosa); set-up: method as in PMID 8702613; settings: divalent cation; read-out: I50 (affinity for LPS); cited from earlier work
NIH 3T3 cells = assay: Metabolic activity, MTS assay; type: cell-based, mouse
Outline: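 Mouse NIH 3T3 fibroblast monolayers, about 5000 cells per well, washed and exposed to serially diluted peptoids in Hank's balanced salt solution. Metabolic activity read by MTS; average of six replicate trials.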

P. aeruginosa 213 (MDR) = assay: microbe, parasite or virus in culture; settings: 213 (MDR)
Outline: (§1)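 Clinical and lab strains were tested by modified broth microdilution in Mueller Hinton medium at 2–7 x 10^5 CFU/mL.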

E. faecalis F43559 (VRE) = assay: microbe, parasite or virus in culture; settings: F43559 (VRE)
Outline: as §1

P. aeruginosa 198 (MDR) = assay: microbe, parasite or virus in culture; settings: 198 (MDR)
Outline: as §1

[2] = test system: E. cloacae 218R Class C β-lactamase; assay: microbe, parasite or virus in culture; settings: 218R Class C β-lactamase
Outline: as §1

P. aeruginosa 9 (MDR) = assay: microbe, parasite or virus in culture; settings: 9 (MDR)
Outline: as §1

E. faecalis W61950 (VRE) = assay: microbe, parasite or virus in culture; settings: W61950 (VRE)
Outline: as §1

E. faecalis ATCC29212 = assay: microbe, parasite or virus in culture; settings: ATCC29212
Outline: as §1

S. aureus C623 (MRSA) = assay: microbe, parasite or virus in culture; settings: C623
Outline: as §1

[3] = test system: K. pneumonia 63575 (ESBL); assay: microbe, parasite or virus in culture
Outline: as §1

E. faecium mic80 (VRE) = assay: microbe, parasite or virus in culture; settings: mic80 (VRE)
Outline: as §1

S. aureus ATCC25923 = assay: microbe, parasite or virus in culture; settings: ATCC25923
Outline: as §1

[4] = test system: P. aeruginosa H103 (wild type); assay: microbe, parasite or virus in culture; settings: H103 (wild type)
Outline: as §1

[5] = test system: P. aeruginosa LES400 (MDR); assay: microbe, parasite or virus in culture; settings: LES400 (MDR)
Outline: as §1

[6] = test system: P. aeruginosa H1027 (MDR); assay: microbe, parasite or virus in culture; settings: H1027 (MDR)
Outline: as §1

E. coli 64771 (ESBL) = assay: microbe, parasite or virus in culture; settings: 64771 (ESBL)
Outline: as §1

[7] = test system: P. aeruginosa H1030 (MDR); assay: microbe, parasite or virus in culture; settings: P. aeruginosa H1030 (MDR)
Outline: as §1

[8] = test system: K. pneumonia 61962 (ESBL); assay: microbe, parasite or virus in culture
Outline: as §1

P. maltophilia ATCC13637 = assay: microbe, parasite or virus in culture; settings: ATCC13637
Outline: as §1

E. faecium T62764 (VRE) = assay: microbe, parasite or virus in culture; settings: T62764 (VRE)
Outline: as §1

E. coli 63103 (ESBL) = assay: microbe, parasite or virus in culture; settings: 63103 (ESBL)
Outline: as §1

erythrocytes = assay: Hemolytic activity (HD10/HD50); type: cell-based
Text: Table 1 Characteristics of antimicrobial peptoids, screened for activity against B. subtilis and E. coli bacterial strains. | column: HD10 / HD50

B. subtilis ATCC 6633 = type: cell-based
Outline: (§2)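 MICs determined by 2:1 serial broth microdilution in cation-adjusted Mueller-Hinton broth per CLSI M7-A6, using inoculum at 1 x 10^6 CFU/mL mixed 1:1 with peptoid solution. Three independent replicates, each with two parallel trials.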

E. coli ATCC 35218 = type: cell-based
Outline: as §2

[9] = test system: 20 bacterial strains (13 Gram-negative, 7 Gram-positive)
Protocol: The MICs of test agents were measured using a modified broth micro-dilution method in Difco Mueller Hinton medium, on a panel of bacterial pathogens that were both susceptible and resistant to common antibiotics (S1 File). Briefly, serial dilutions were performed in 0.01% acetic acid containing 0.2% bovine serum albumin at 10-fold the desired final concentration. Ten μL of the 10-fold concentrated test reagents were added to each well of a 96-well polypropylene microtitre plate containing 90 μL of Mueller Hinton media per well. Bacteria were added to the plate from an overnight culture at a final concentration of 2–7 x 10^5 CFU/mL and incubated overnight at 37°C. The MIC is defined as the concentration at which no growth was observed.
Screening of peptoid antimicrobial activity against a panel of multidrug resistant superbugs was done according to the protocol described in the manuscript. The bacterial strains used in this panel included; P. aeruginosa PAO1 strain H103 [1], P. maltophilia ATCC#13637, S. aureus ATCC#25923 [1], E. faecalis ATCC#29212 [2], and E. cloacae 218R, constitutively expressing Class C chromosomal β-lactamase, were from the Hancock lab strains collection. An MRSA clinical isolate was kindly provided by Anthony Chow (Vancouver General Hospital, Vancouver, Canada). Two Klebsiella pneumoniae and two E. coli clinical isolates expressing extended spectrum β-lactamases (ESBL) were kindly provided by George Zhanel (Health Sciences Centre, Winnipeg, Canada). Vancomycin-resistant clinical isolates of Enterococcus faecalis and E. faecium were obtained from Ana M. Paccagnella (BC Centre for Disease Control, Vancouver, Canada). Three clinical isolates (#9, #198 and #213) of multi-drug resistant P. aeruginosa, were kindly provided by Carlos Kiffer (University of São Paulo, Brazil). […] Three P. aeruginosa clinical isolates of the Liverpool epidemic strain (LES) (H1027, H1030 and LES400) were all kindly provided by Craig Winstanley (University of Liverpool, UK). […] All tested bacterial strains were categorized as biohazard level 2 pathogens.

[10] = test system: bowel perforation and sepsis; set-up: method as in PMID 15294887; settings: cited from earlier work
[11] = test system: diabetic foot ulcer infection; set-up: method as in PMID 18310135; settings: Phase III, diabetic foot ulcers; cited from earlier work
LPS (P. aeruginosa) [12] = assay: Dansyl polymyxin B (DPX) displacement assay, LPS binding; settings: DPX bound to P. aeruginosa LPS
Protocol: The Dansyl polymyxin B (DPX) displacement assay was carried out as described earlier. In brief, the fluorescence of DPX (Invitrogen) bound to LPS (P. aeruginosa) was measured by using a Luminescence spectrometer LS 50B (Perkin Elmer) with excitation and emission-wavelengths of 340 nm and 485 nm, respectively. A predetermined amount of DPX, resulting in 90% saturation of LPS, was added to 1 mL of 3 μg/mL of purified LPS. Small aliquots (5 μL of 1 μg/mL) of test compounds were added under constant stirring in the cuvette, and the displacement of DPX was measured for 30–60 seconds as a decrease in fluorescence. The process was repeated until maximum displacement was reached.
The ability of other cationic molecules to displace DPX molecules bound to LPS (monitored by reduction in fluorescence) assesses their relative ability to bind to LPS [33, 34]. While the highly cationic MSI-78 (+10 charge) displaced 100% of bound DPX (equivalent to that of polymyxin B), peptoid 1 and MX-226 displaced 71% and 73% of bound DPX, respectively. […] A second parameter characterizing the LPS/polycation interaction is the I50, which is defined as the concentration of a polycation that displaces 50% of LPS-bound DPX. The I50 is inversely related to the relative affinity of each molecule for binding sites on LPS.

Compound	MIC (P. aeruginosa 213 (MDR)) [µg/mL]	MIC (E. faecalis F43559 (VRE)) [µg/mL]	MIC (P. aeruginosa 198 (MDR)) [µg/mL]	MIC [2] [µg/mL]	MIC (P. aeruginosa 9 (MDR)) [µg/mL]	MIC (E. faecalis W61950 (VRE)) [µg/mL]	MIC (E. faecalis ATCC29212) [µg/mL]	MIC (S. aureus C623 (MRSA)) [µg/mL]	MIC [3] [µg/mL]	MIC (E. faecium mic80 (VRE)) [µg/mL]	MIC (S. aureus ATCC25923) [µg/mL]	MIC [4] [µg/mL]	MIC [5] [µg/mL]	MIC [6] [µg/mL]	MIC (E. coli 64771 (ESBL)) [µg/mL]	MIC [8] [µg/mL]	MIC (P. maltophilia ATCC13637) [µg/mL]	MIC (E. faecium T62764 (VRE)) [µg/mL]	MIC (E. coli 63103 (ESBL)) [µg/mL]	also measured
[Mg+2] [Mg^2+]	–	–	–	–	–	–	–	–	–	–	–	–	–	–	–	–	–	–	–	IC50 (LPS (P. aeruginosa) [1]): 620 µM
C[C@@H](c1ccccc1)N(CC(=O)N(CC(=O)N(CCCCN)CC(=O)N(CC(=O)N(CC(=O)N(CCCCN)CC(=O)N(CC(=O)N(CC(=O)N(CCCCN)CC(=O)N(CC(=O)N(CC(N)=O)Cc1ccccc1)Cc1ccccc1)Cc1ccccc1)Cc1ccccc1)Cc1ccccc1)Cc1ccccc1)Cc1ccccc1)C(=O)CNCCCCN [Peptoid 1ach-Nspe2, H-(NLys-Nspe-Npm)- (NLys-Npm-Npm)3-NH2] (H-[Nlys][Nspe][Nphe][Nlys][Nphe][Nphe][Nlys][Nphe][Nphe][Nlys][Nphe][Nphe]-NH2)	8 (≈ 4.65 µM)	16 (≈ 9.3 µM)	8 (≈ 4.65 µM)	16 (≈ 9.3 µM)	64 (≈ 37.2 µM)	32 (≈ 18.6 µM)	16 (≈ 9.3 µM)	4 (≈ 2.32 µM)	32 (≈ 18.6 µM)	4 (≈ 2.32 µM)	4 (≈ 2.32 µM)	4 (≈ 2.32 µM)	4 (≈ 2.32 µM)	2 (≈ 1.16 µM)	8 (≈ 4.65 µM)	64 (≈ 37.2 µM)	2 (≈ 1.16 µM)	2 (≈ 1.16 µM)	16 (≈ 9.3 µM)	ID50 (inhibitory dose, metabolic activity) (NIH 3T3 cells): 11 µM; MIC [7]: 32 µg/mL (≈ 18.6 µM); HD10 (hemolytic activity) (erythrocytes): 160; HD50 (hemolytic activity) (erythrocytes): > 200; MIC B. subtilis (B. subtilis ATCC 6633): 0.78 µM (≈ 1.34 µg/mL); MIC E. coli (E. coli ATCC 35218): 6.3 µM (≈ 10.8 µg/mL)
GIGKFLKKAKKFGKAFVKILKK-NH2 (C-terminus assumed) [MSI-78, pexiganan, reference compound]	8	16	4	2	16	256	16	16	8	4	64	1	4	2	2	32	2	8	16	MICs, range against all Gram-positive strains tested [9]: 4 to 256 µg/mL; median MIC against all Gram-positive strains tested [9]: 16 µg/mL; endotoxin plasma levels ([10]; rat model of sepsis): reduce endotoxin plasma levels; reduction of bacterial counts ([10]; rat, caecal ligation and puncture model): four orders of magnitude; patients in whom infection was eliminated or significantly reduced [11]: over 90%; bound DPX displaced (maximum displacement) (LPS (P. aeruginosa) [12]): 100%; IC50 (LPS (P. aeruginosa) [12]; read-out: I50 (concentration that displaces 50% of LPS-bound DPX)): 1.4 µM
